Data on seven molecules can be found in patent US20130252930A1 (BIOMARIN PHARMACEUTICAL INC., priority 2010, published 2013).

Where two headings read alike, the source gives them in different places.

Test [1] has as its system rat Cyp11B enzyme (rat adrenal mitochondria). Put plainly: CYP11B enzymatic assay (% inhibition at 100 nM) (Biological Example 9). The class given is biochemical. Conditions: for Biological Example No. 9: CYP11B percent inhibition at 100 nM: 100 nM compound, cortisol by ELISA; for CYP11B enzymatic assay % inhibition at 100 nM (Biological Example No. 9): compound at 100 nM. The method, boiled down: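 Sprague Dawley rat adrenal mitochondria were incubated with compound at 100 nM, 0.5 mM NADPH and 0.1 μM 11-deoxycortisol (pH 7.4 Tris buffer) for 60 min at 37 °C. Cortisol was measured by ELISA and corrected by subtracting the no-NADPH background. % inhibition is relative to the no-compound reaction.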

The target of test [2] is T1, CYP17 (human testicular microsome) (Homo sapiens, UniProt P05093).
T1 construct: using microsomal fraction from human testis (Celsis Cat #S00110) as the enzyme source; tissue Celsis S00110; host or cells: human testis microsomal fraction
T1 sequence (P05093 1-508): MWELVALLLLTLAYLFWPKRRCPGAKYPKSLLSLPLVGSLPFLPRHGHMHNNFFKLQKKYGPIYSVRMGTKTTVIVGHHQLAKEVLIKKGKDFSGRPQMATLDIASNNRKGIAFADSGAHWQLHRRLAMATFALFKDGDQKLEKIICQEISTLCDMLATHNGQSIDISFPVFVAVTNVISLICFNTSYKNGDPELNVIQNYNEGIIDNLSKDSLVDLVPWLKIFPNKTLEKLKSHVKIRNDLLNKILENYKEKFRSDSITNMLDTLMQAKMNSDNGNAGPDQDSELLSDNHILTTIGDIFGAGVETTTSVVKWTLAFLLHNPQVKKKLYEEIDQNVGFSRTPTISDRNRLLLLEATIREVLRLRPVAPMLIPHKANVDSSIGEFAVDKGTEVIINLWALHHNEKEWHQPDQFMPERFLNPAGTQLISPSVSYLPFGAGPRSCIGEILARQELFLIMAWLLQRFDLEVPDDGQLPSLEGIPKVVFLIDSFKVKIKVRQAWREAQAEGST
Put plainly: CYP17 enzymatic assay (IC50) (Biological Example 4). The class given is biochemical. Conditions: human testicular microsome.

For test [3], the target named is T1, CYP17 (human testicular microsome). Put plainly: CYP17 enzymatic assay (% inhibition at 10 nM), version 1 (Biological Example 5). In kind it is biochemical. Conditions: 10 nM compound, DHEA by ELISA, read-out: Biological Example No. 5: CYP17 percent inhibition at 10 nM (version 1).
Test [4] deals with T2, Cyp21 enzyme (Human HEK 293-Cyp21 stable transfected cells) (Homo sapiens, UniProt P08686).
T2 construct: expressed in transfected cells
T2 sequence (P08686 1-495): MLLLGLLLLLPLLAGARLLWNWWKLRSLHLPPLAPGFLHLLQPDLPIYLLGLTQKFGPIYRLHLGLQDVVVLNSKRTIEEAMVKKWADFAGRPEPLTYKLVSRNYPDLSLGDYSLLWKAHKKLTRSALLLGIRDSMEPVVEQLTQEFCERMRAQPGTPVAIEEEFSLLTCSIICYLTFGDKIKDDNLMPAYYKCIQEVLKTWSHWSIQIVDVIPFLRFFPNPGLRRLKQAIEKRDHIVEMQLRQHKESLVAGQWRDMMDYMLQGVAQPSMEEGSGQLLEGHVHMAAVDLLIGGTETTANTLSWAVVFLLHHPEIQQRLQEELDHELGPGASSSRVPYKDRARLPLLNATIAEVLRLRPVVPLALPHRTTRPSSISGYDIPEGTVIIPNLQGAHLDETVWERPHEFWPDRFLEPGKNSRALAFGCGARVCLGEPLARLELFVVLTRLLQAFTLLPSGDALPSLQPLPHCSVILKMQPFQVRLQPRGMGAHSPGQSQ
Put plainly: CYP21-HEK293 enzymatic assay (% inhibition at 100 nM) (Biological Example 10). In kind it is cell-based. The following applies: HEK 293-Cyp21 cells. How it is done: Proceeding using methods similar to those described in Biological Example 11, the percent inhibition at 100 nM was measured.
This assay was used to determine compound activity against Cyp21 enzyme. Human HEK 293-Cyp21 stable transfected cells (maintained in complete growth media DMEM+10% FBS, supplemented with 125 ug/mL Hygromycin) were seeded in a 96-well plate at 20,000 cells/well/100 uL in DMEM plus 10% FBS and allowed to attach overnight. The next day, 20 μL medium was carefully removed and 10 μL of 10× pre-made compounds in DMEM+10% FBS+10% methanol was transferred to the wells to final concentrations of 1000, 100, 10, 1, or 0.1 nM. Mock treatment was 1% methanol in growth media and the cells were left at 37° C., 5% CO2 for 5 hr. After the incubation, 10 μL of substrate progesterone (Sigma) was added to the wells to make a final concentration of 10 μM. The cells were incubated the cells at 37° C. for 20 hr. At the end of incubation, 90 μL of conditioned media was removed to measure DOC level by ELISA.
Preparation of the DOC ELISA: 100 μL of coating buffer (0.025M PBS pH 7.4) containing 200 ng/mL DOC-3-carboxymethyloxime-BSA (Steraloids. inc, Cat#3469-000) was added to each well of a 96-well plate and incubated overnight at 4° C. The next day, the plates were washed twice with 250 μl of wash solution (0.015M PBS pH 7.4 containing 0.05% Tween 20). After being washed, the wells were blocked with 250 μL blocking buffer (3% BSA in 0.025M PBS, pH 7.4) at 37° C. for 2 h. The plates were washed again 3 times as before, and then 90 μL of sample /standards (prepared in complete growth media) was added into the appropriate wells followed by 10 μL of antibody solution (1:450 rabbit anti-DOC in 0.6% BSA/PBS). The plates were incubated at room temperature for 2 h on a shaker. The contents of the wells were removed and the plate was washed 4 times. After the final wash, 100 μL of secondary antibody (1:12000 HRP-goat-anti-rabbit IgG conjugate 0.6% BSA/PBS) was added into each well. The plate was incubated at 30° C. for 45 min. The plate was washed again 4 times and 100 μL of TMB substrate solution was added to each well. The plate was incubated at room temperature for 10 min. 100 μL of stop solution was added to each well and the optical density was read at 450 nm.
The mean absorbance value for each sample was used to determine the corresponding concentration from the standard curve. Data was analyzed with “log(antagonist) vs response variable slope” under “non-linear regression analysis” using Prism5 software.

Test [5] addresses T1, CYP17 (human testicular microsome). Put plainly: CYP17 enzymatic assay (% inhibition at 1 nM) (Biological Example 12). The following applies: compound at 1 nM, read-out: CYP17 enzymatic assay % inhibition at 1 nM (Biological Example No. 12). In kind it is biochemical.
Setting [6] is: DHEA by ELISA, read-out: Biological Example No. 4: CYP17 enzymatic assay IC50.
Where [7] appears, read: 100 nM compound, read-out: Biological Example No. 10: CYP21-HEK293 percent inhibition at 100 nM.
The mark [8] stands for this setting: compound at 100 nM, read-out: CYP21-HEK293 enzymatic assay % inhibition at 100 nM (Biological Example No. 10).

Regarding `C[C@]12CC[C@H]3[C@@H](CCN4C(=O)CCCC[C@]34C)[C@@H]1CC=C2c1cccnc1` [Compound 38, (11aR,13aS)-11a,13a-dimethyl-1-(pyridin-3-yl)-3b,4,5,8,9,10,11,11a,11b,12,13,13a-dodecahydro-3H-azepino[2,1-a]cyclopenta[f]isoquinolin-7(3aH)-one], the “Biological Example No. 9: CYP11B percent inhibition at 100 nM” value in test [1] is “na (“na” means the compound was not active under the conditions tested)”. Further, in test [2] (setting [6]), the IC50 is < 0.011 µM. In addition, the inhibition at 0.01 µM in test [3] lay within 50 to 80%. The inhibition at 0.1 µM in test [4] (setting [7]) was < 30%.
In the case of `C[C@]12CC[C@H]3[C@@H](CCN4CCCCC[C@]34C)[C@@H]1CC=C2c1cccnc1` [Compound 44, (11aR,13aS)-11a,13a-dimethyl-1-(pyridin-3-yl)-3a,3b,4,5,7,8,9,10,11,11a,11b,12,13,13a-tetradecahydro-3H-azepino[2,1-a]cyclopenta[f]isoquinoline], the “Biological Example No. 9: CYP11B percent inhibition at 100 nM” value in test [1] is “na (“na” means the compound was not active under the conditions tested)”. The inhibition at 0.01 µM in test [3] was in the range of 1 to 50%. Besides, in test [4] (setting [7]), the inhibition at 0.1 µM is < 30%.
Regarding `C[C@]12CCCCC1C(=O)C[C@@H]1[C@@H]2CC[C@]2(C)C(n3ccnc3)=CC[C@@H]12` (stereo partly drawn) [Compound 88, (10R,13S)-17-(1H-imidazol-1-yl)-10,13-dimethyl-2,3,4,5,7,8,9,11,12,13,14,15-dodecahydro-1H-cyclopenta[a]phenanthren-6(10H)-one], the “Biological Example No. 9: CYP11B percent inhibition at 100 nM” value in test [1] is “T (T means the compound had a percent inhibition of less than 32% when tested at 100 nM)”. In addition, in test [2] (setting [6]), the concentration for half-maximal inhibition (IC50) was < 0.011 µM. In addition, in test [3], the inhibition at 0.01 µM is > 80%. For the same molecule, in test [4] (setting [7]), the inhibition at 0.1 µM was < 30%.
Consider `CN1CC=C2CC[C@@H]3[C@H](CC[C@]4(C)C(c5cccnc5)=CC[C@@H]34)[C@@]2(C)CC1` [Compound 147, (5aR,7aS)-2,5a,7a-trimethyl-8-(pyridin-3-yl)-2,3,4,5,5a,5b,6,7,7a,10,10a,10b,11,12-tetradecahydrocyclopenta[5,6]naphtho[2,1-c]azepine], for which, in test [1], the “Biological Example No. 9: CYP11B percent inhibition at 100 nM” value was “na (“na” means the compound was not active under the conditions tested)”. The inhibition at 0.01 µM in test [3] lay within 1 to 50%. For the same molecule, the inhibition at 0.1 µM in test [4] (setting [7]) is < 30%.
For `CN1CC=C2CC[C@@H]3[C@H](CC[C@]4(C)C(n5ccnc5)=CC[C@@H]34)[C@@]2(C)CC1` [Compound 151] the same measures were “T (T means the compound had a percent inhibition of less than 32% when tested at 100 nM)”, 1 to 50% and < 30%.
In the case of `COC(=O)NC1CC[C@@]2(C)C(=CCC3C2CC[C@]2(C)C(n4ccnc4)=CCC32)C1` (stereo partly drawn) [Compound 239, methyl ((10R,13S)-17-(1H-imidazol-1-yl)-10,13-dimethyl-2,3,4,7,8,9,10,11,12,13,14,15-dodecahydro-1H-cyclopenta[a]phenanthren-3-yl)carbamate], the inhibition at 0.001 µM in test [5] was > 50%. Further, the “CYP11B enzymatic assay % inhibition at 100 nM (Biological Example No. 9)” value in test [1] was “T (T means the compound had a percent inhibition of less than 32% when tested at 100 nM)”. For the same molecule, the concentration for half-maximal inhibition (IC50) in test [2] (read-out: CYP17 enzymatic assay IC50 (Biological Example No. 4)) is < 0.011 µM. Moreover, the inhibition at 0.1 µM in test [4] (setting [8]) is < 30%.
On to `C[C@]12CC[C@H]3[C@@H](CC=C4C[C@H](NC(=O)C5CC5)CC[C@@]43C)C1=CC=C2n1ccnc1` [Compound 246, N-((3R,10R,13S)-17-(1H-imidazol-1-yl)-10,13-dimethyl-2,3,4,7,8,9,10,11,12,13-decahydro-1H-cyclopenta[a]phenanthren-3-yl)cyclopropanecarboxamide], for which, in test [5], the inhibition at 0.001 µM was 10 to 50%. The “CYP11B enzymatic assay % inhibition at 100 nM (Biological Example No. 9)” value in test [1] is listed as “U (U means the compound had a percent inhibition of greater than or equal to 32%)”. For the same molecule, the inhibition at 0.1 µM in test [4] (setting [8]) is < 30%.
